In publication PMC6273765, “Synthesis and Biological Evaluation of Novel Aromatic Imide-Polyamine Conjugates” (Molecules, 2016):
Where a name gives a salt, the structure may show the parent alone.

Columns and labels:
K562 cells = experiment: MTT cytotoxicity, K562; type: cell-based, human; settings: mean of three experiments
HCT-116 cells = experiment: MTT cytotoxicity, HCT-116; type: cell-based, human; settings: mean of three experiments
QSG-7701 cells = experiment: MTT cytotoxicity, QSG-7701 normal hepatocyte; type: cell-based; settings: normal hepatocyte cell line
HepG2 cells [1] = experiment: MTT cytotoxicity, HepG2; type: cell-based, human; settings: mean of three experiments
MDA-MB-231 cells = experiment: MTT cytotoxicity, MDA-MB-231; type: cell-based; settings: Homo sapiens, 48 h, mean of three experiments
[2] = Systemic toxicity (body weight, organ index); settings: 11e 1 mg/kg, amonafide 5 mg/kg i.v.
Procedure: However, there are few reports about the systemic toxicology of naphthalimide-polyamine conjugates to support the above hypothesis. […] At the same time, the body weight was monitored to detect the dose-limited toxicity. On day 8, these mice were killed by cervical vertebra, and the organs and tissues, including samples of heart, liver, lung, kidney, spleen and thymus, were taken for the inspection of systemic toxicity.
Mice (8 per group) received 11e (1 mg/kg) and amonfide (5 mg/kg, i.v.) for 7 consecutive days and then were sacrificed. Heart, liver, kidney, lung and spleen were removed and weighed. The organ index was investigated for systemic toxicity evaluation: organ index (%) = (organ weight/body weight) × 100.

[3] = test system: H22 mouse hepatocellular carcinoma; experiment: Subcutaneous H22 solid tumor growth inhibition; type: in vivo, Kunming mice; settings: 11e 1 mg/kg, amonafide 5 mg/kg; for Inhibition Rate (tumor weight) / Tumor Weight: caudal vein, 7 consecutive days; for Inhibition Rate (tumor weight): vs normal saline; for Tumor Weight: control 2.17 ± 0.22 g; for No. Dead: solid tumor model
Excerpt: However, few in vivo studies provided limited messages for rational design of the conjugates in comparison to the plentiful in vitro data. Indeed, there are significant discrepancies between in vitro and in vivo experiments in many cases. In vivo trials, based on preliminary in vitro screens, provide more valuable messages for further drug development. To further evaluate the antitumor activity of 11e in vivo, we chose three H22 (mice hepatoma cell line) tumor transplant models: solid tumor (tumor growth inhibition evaluation), ascites tumor (live time evaluation), and pulmonary metastasis tumor (tumor metastasis evaluation).
All animal care and experimentation conformed to the Guide for the Care and Use of Laboratory Animals published by Henan University (HUSOM2016-162). For solid tumor development, 30 male Kunming mice (Laboratory Animal Center of Henan, Zhengzhou, China) aged 5 weeks (weighing 18–22 g) were injected subcutaneously with 2 × 10^6 H22 cells. […] On day 16, the mice were killed by cervical vertebra dislocation, and solid tumors were removed and weighed. The inhibitory rate was calculated as follows: inhibitory rate (%) = [(A − B)/A] × 100, where A was the mean tumor weight of the control group and B was that of the drug treated or positive group.

[4] = test system: H22 cells lung metastasis; experiment: H22 lung metastasis model; type: in vivo, Kunming mice; settings: 11e 1 mg/kg; for Inhibition Rate (lung metastasis) / Metastatic Focus (No.): amonafide 5 mg/kg i.v., 7 consecutive days; for Inhibition Rate (lung metastasis): vs normal saline; for Metastatic Focus (No.): control 110.04 ± 15.38; for No. Dead: amonafide 5 mg/kg, lung metastasis model
Excerpt: Metastasis is the process by which tumors spread from the primary organ in which they arise to other sites in the body. In most cases, tumors that stay confined to one organ will not be fatal, tumors that have spread to other organs have a greater potential for causing harm. To test whether 11e was effective against an established lung metastasis, we injected H22 cells intravenously into 24 Kunming mice (5 × 10^6 cells each mouse). To ensure that all mice bore actively growing lung tumors before the drug treatment, pulmonary cancer was allowed to develop for 10 days.
H22 cells (5 × 10^6 cells per mouse) for Kunming mice were injected intravenous (i.v.) through the tail vein for tumor passive metastasis. To ensure all mice bore actively growing lung tumors before the drug treatment, pulmonary metastasis was allowed to develop for 10 days. […] On day 18, mice were killed by cervical vertebra dislocation, and lungs were removed and weighed, and then fixed in Bouin’s fluid. After the lungs were fixed, lung metastases nodus was numbered.

H22 cells = experiment: Survival time in mice bearing H22 cells (ascites); type: in vivo, Kunming mice; settings: 11e 1 mg/kg, amonafide 5 mg/kg i.v.; for median survival time (MST): 7 consecutive days, control 12.75 ± 2.5 days
Procedure: Impacts of 11e on survival time in H22-bearing mice were evaluated by measuring the extension of the lifespan. The median survival time (MST) in control mice was (12.75 ± 2.5) days.
For calculation of the survival time, 30 male Kunming mice were inoculated via intraperitoneal (i.p.) injection with 1 × 10^6 H22 cells/mouse on day 0 and were randomly divided into three groups. […] The median survival time (MST) for each group was observed, and the antitumor activity of the drug was evaluated by measuring the increase of the lifespan. The extended lifespan rate was calculated as follows: extend rate (%) = (MST treated group/MST control group) × 100.

HepG2 cells [5] = experiment: Apoptosis by AO/EB staining (HCS); type: cell-based, human; settings: HepG2, 3, 6, 12 μM, 48 h
Excerpt: To appraise if novel naphthalimide-polyamine conjugates induce cell apoptosis, morphological study was applied after HepG2 cells were stained with AO/EB. […] To furnish more credible information about the apoptosis of HepG2 cells induced by compound 11e, we used the high content screening (HCS) technique to detect related apoptosis indicators. Mitochondria are vital cell organelles in the process of transmitting apoptosis signals, whereas the mitochondrial membrane potential (MMP) is a critical parameter related to mitochondrial function in cells. As a MMP specific cationic fluorescent dye, Rh123 is used to measure the change of MMP, which accumulates in healthy mitochondria with intact membrane potential and is absent in the depolarized mitochondria. […] Thus, the lysosomal mass/pH (Lys/pH) variation was detected by a basic fluorescent probe Lyso-Tracker Red which selectively accumulates in acidic lysosomes during cytotoxicity occurs.
HepG2 cells were seeded in 96 well plates (6 × 10^3 cells/well), cultured for 24 h to obtain a confluent monolayer and then treated with various concentrations of tested compounds for 48 h. […] Images were obtained on the High Content Screening (HCS, ArrayScan, Thermo Scientific) reader using the Target Activation BioApplication software (Thermo Scientific).

HepG2 cells [6] = experiment: Lysosomal mass/pH, Lyso-Tracker Red (HCS); type: cell-based, human; settings: HepG2, 3, 6, 12 μM, 48 h
Excerpt: (§1) To appraise if novel naphthalimide-polyamine conjugates induce cell apoptosis, morphological study was applied after HepG2 cells were stained with AO/EB. […] To furnish more credible information about the apoptosis of HepG2 cells induced by compound 11e, we used the high content screening (HCS) technique to detect related apoptosis indicators. Mitochondria are vital cell organelles in the process of transmitting apoptosis signals, whereas the mitochondrial membrane potential (MMP) is a critical parameter related to mitochondrial function in cells. As a MMP specific cationic fluorescent dye, Rh123 is used to measure the change of MMP, which accumulates in healthy mitochondria with intact membrane potential and is absent in the depolarized mitochondria. Lysosomes, as cellular targets in cancer therapy, participate in various cell death profiles such as apoptosis and senescence. Thus, the lysosomal mass/pH (Lys/pH) variation was detected by a basic fluorescent probe Lyso-Tracker Red which selectively accumulates in acidic lysosomes during cytotoxicity occurs.
(§2) HepG2 cells were seeded in 96 well plates (6 × 10^3 cells/well), cultured for 24 h to obtain a confluent monolayer, and then treated with various concentrations of tested compounds for 48 h. […] Images were acquired on the ArrayScan HCS reader using the Target Activation BioApplication software.

HepG2 cells [7] = experiment: ROS generation, DCFH-DA (HCS); type: cell-based, human; settings: HepG2, 3, 6, 12 μM, 48 h
Procedure: It is known that polyamine conjugates may produce reactive oxygen species (ROS). The elevated ROS could bring corresponding influences on MMP loss and LYS/pH destabilization, which generally activates the cell death. Therefore, the ROS generation was detected by the DCFH-DA (2′,7′-dichlorodihydrofluorescein diacetate) experiment.
HepG2 cells were seeded in 96 well plates (6 × 10^3 cells/well), cultured for 24 h to obtain a confluent monolayer, and then treated with various concentrations of tested compounds for 48 h. Cells were incubated with Rh123 (0.25 nM), or DCFH-DA (10 μM), or Lyso-Tracker Red (50 nM ) in the dark at 37 °C for 30 min. for the measurement of mitochondrial membrane potential (MMP), or reactive oxygen species (ROS) or lysosomal mass/pH staining, respectively. After being washed with PBS to remove excess dyes, cells were further stained with the nuclear dye Hoechst 33,342 (10 μM) in the dark at 37 °C for 20 min. Images were acquired on the ArrayScan HCS reader using the Target Activation BioApplication software.

HepG2 cells [8] = experiment: Mitochondrial membrane potential, Rh123 (HCS); type: cell-based, human; settings: HepG2, 3, 6, 12 μM, 48 h
Excerpt: as §1, §2

| Compound | IC50 (K562 cells; Homo sapiens, K562, 48 h) [µM] | IC50 (HCT-116 cells; Homo sapiens, HCT-116, 48 h) [µM] | IC50 (QSG-7701 cells; QSG7701, 48 h) [µM] | IC50 (HepG2 cells [1]; Homo sapiens, HepG2, 48 h) [µM] | IC50 (MDA-MB-231 cells) [µM] | also measured |
| --- | --- | --- | --- | --- | --- | --- |
| 2-{3-[4-(3-Aminopropylamino)butylamino]butyl}-6-acetyl-1H-benz[de]isoquinoline-1,3(2H)-dione trihydrochloride [5e] | – | – | – | – | – | IC50 (K562 cells; 48 h): 12.2 µM; IC50 (HCT-116 cells; 48 h): 16.9 µM; IC50 (QSG-7701 cells; 48 h): 27.7 µM; IC50 (HepG2 cells [1]; 48 h): 22.1 µM |
| NCCCNCC(=O)NCCCN1C(=O)c2cccc3cccc(c23)C1=O [11a, 2-(3-Aminopropylamino)-N-(3-(1,3-dioxo-1H-benzo[de]isoquinolin-2(3H)-yl)propyl)acetamide dihydrochloride] | 33.2 | 39.9 | 39.2 | 53.5 | 32.4 | – |
| NCCCNCCCNCCCN1C(=O)c2ccc(-c3ccccc3)cc2C1=O [17b, 5-Phenyl-2-{3-[3-(3-aminopropylamino)-propylamino]propyl}isoindoline-1,3-dione trihydrochloride] | 28.2 | > 50 | > 50 | > 50 | – | – |
| CC(=O)c1ccc2c3c(cccc13)C(=O)N(CCCCNCCCCN)C2=O [5d, 2-[(2-Dimethylamino)ethyl-[4-(4-aminobutylamino)butyl]-6-acetyl-1H-benz[de]isoquinoline-1,3(2H)-dione dihydrochloride] | 31.1 | 22.9 | 23.2 | 23.9 | – | – |
| NCCCNCCCCNCCCN1C(=O)c2ccc(-c3ccccc3)cc2C1=O [17c, 5-Phenyl-2-{3-[4-(3-aminopropylamino)-amino]propyl}isoindoline-1,3-dione trihydrochloride] | > 50 | > 50 | > 50 | > 50 | – | – |
| NCCCNCCCNCC(=O)NCCCN1C(=O)c2cccc3cccc(c23)C1=O [11b, 2-(3-(3-Aminopropylamino)propylamino)-N-(3-(1,3-dioxo-1H-benzo[de]isoquinolin-2(3H)-yl)propyl)acetamide trihydrochloride] | 28 | > 50 | 42.9 | > 50 | 16.8 | – |
| NCCCCNCCCCNCCCCN1C(=O)c2ccc(-c3ccccc3)cc2C1=O [17d, 5-Phenyl-2-{4-[4-(4-aminobutylamino)-butylamino]butyl}isoindoline-1,3-dione trihydrochloride] | > 50 | > 50 | > 50 | > 50 | – | – |
| CN(C)CCN1C(=O)c2cccc3cc(N)cc(c23)C1=O [Amonafide, amonafide, reference compound] | 6.31 | 15.4 | 55.5 | 6.57 | 7.98 | liver and spleen index ([2]; 7 days, compared to controls): obviously decreased; body weight change ([2]; tumor-bearing mice, 7 consecutive days): some degree of weight loss; Inhibition Rate (tumor weight) [3]: 43.79%; Tumor Weight [3]: 1.22 ± 0.13 g; No. Dead [3]: 0/9; Inhibition Rate (lung metastasis) [4]: 40.70%; Inhibition Rate (lung metastasis) ([4]; listed as amonafide): 40.7%; Metastatic Focus (No.) [4]: 65.25 ± 13.82; No. Dead [4]: 0/8; life span increase vs control group (H22 cells): 1.53 fold; median survival time (MST) (H22 cells): 19.5 ± 3.6 days |
| Cl.Cl.Cl.Cl.NCCCNCCCCNCCCNCC(=O)NCCCN1C(=O)c2cccc3cccc(c23)C1=O [11e, 2-(3-(4-(3-Aminopropylamino)butylamino)propylamino)-N-(3-(1,3-dioxo-1H-benzo[de]isoquinolin-2(3H)-yl)propyl)acetamide tetrahydrochloride] | 2.86 | 5.12 | 53.9 | 6.33 | 12 | Inhibition Rate (tumor weight) [3]: 70.92%; Tumor Weight [3]: 0.63 ± 0.21 g; No. Dead [3]: 0/9; Metastatic Focus (No.) [4]: 40.25 ± 8.15; No. Dead [4]: 0/8; apoptosis induction (AO/EB) (HepG2 cells [5]): obvious apoptosis; Lyso-Tracker Red fluorescence (lysosomal mass/pH) (HepG2 cells [6]): remarkable accruement of red fluorescence; ROS generation (DCFH-DA) (HepG2 cells [7]): apparently increased ROS; green fluorescence of Rh123 (MMP) (HepG2 cells [8]): significantly decreased in a dose-dependent manner; life span increase vs control group (H22 cells): 2.41 fold; median survival time (MST) (H22 cells): 30.75 ± 4.4 days |
| NCCCCNCCCCNCCCCNCC(=O)NCCCN1C(=O)c2cccc3cccc(c23)C1=O [11f, 2-(4-(4-(4-Aminobutylamino)butylamino)butylamino)-N-(3-(1,3-dioxo-1H-benzo[de]isoquinolin-2(3H)-yl)propyl)acetamide tetrahydrochloride] | 26.2 | > 50 | 50.6 | > 50 | 57.1 | – |
| CC(=O)c1ccc2c3c(cccc13)C(=O)N(CCCCNCCCCNCCCCN)C2=O [5f, 2-{4-[4-(4-Aminobutylamino)butylamino]butyl}-6-acetyl-1H-benz[de]isoquinoline-1,3(2H)-dione trihydrochloride] | 18.8 | 19.6 | 21.2 | 30.7 | – | – |
